The target in one test is T1, 5-HT1F (Homo sapiens, UniProt P30939).
T1 construct: gene HTR1F; full-length receptor; HEK293 cell membranes
The experiment in a line: competitive radioligand binding, HEK293 membranes. An excerpt: competitive radioligand binding, HEK293 membranes on 5-HT1F

A further test addresses T2, H2 (Homo sapiens, UniProt P25021).
T2 construct: gene HRH2; full-length receptor; HEK293 cell membranes
Briefly: competitive radioligand binding, HEK293 membranes. An excerpt:
competitive radioligand binding, HEK293 membranes on H2

Test [1] concerns the target T3, CHRM5 (Homo sapiens, UniProt P08912).
T3 sequence (P08912 1-532): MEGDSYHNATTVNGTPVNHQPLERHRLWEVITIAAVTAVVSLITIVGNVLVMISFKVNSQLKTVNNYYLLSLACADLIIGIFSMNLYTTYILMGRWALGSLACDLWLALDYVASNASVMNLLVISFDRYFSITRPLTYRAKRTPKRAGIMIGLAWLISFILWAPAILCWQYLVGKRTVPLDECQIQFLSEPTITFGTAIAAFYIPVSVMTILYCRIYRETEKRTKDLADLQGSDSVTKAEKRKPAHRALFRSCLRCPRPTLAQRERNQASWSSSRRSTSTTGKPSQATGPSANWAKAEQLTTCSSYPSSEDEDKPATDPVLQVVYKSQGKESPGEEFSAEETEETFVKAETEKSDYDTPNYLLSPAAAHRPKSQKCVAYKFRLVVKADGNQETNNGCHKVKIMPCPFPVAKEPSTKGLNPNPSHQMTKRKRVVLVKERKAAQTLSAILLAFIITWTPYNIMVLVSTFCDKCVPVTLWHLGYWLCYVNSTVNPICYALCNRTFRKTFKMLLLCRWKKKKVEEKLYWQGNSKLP
The experiment in a line: cell-based. Also on record: species or system HEK293; Fluo-4 Direct calcium mobilization on FLIPR-Tetra. Particulars: Assay=Calcium, agonist mode, % of control agonist.

The target in another test is T4, CHRM1 (Homo sapiens, UniProt P11229).
T4 sequence (P11229 1-460): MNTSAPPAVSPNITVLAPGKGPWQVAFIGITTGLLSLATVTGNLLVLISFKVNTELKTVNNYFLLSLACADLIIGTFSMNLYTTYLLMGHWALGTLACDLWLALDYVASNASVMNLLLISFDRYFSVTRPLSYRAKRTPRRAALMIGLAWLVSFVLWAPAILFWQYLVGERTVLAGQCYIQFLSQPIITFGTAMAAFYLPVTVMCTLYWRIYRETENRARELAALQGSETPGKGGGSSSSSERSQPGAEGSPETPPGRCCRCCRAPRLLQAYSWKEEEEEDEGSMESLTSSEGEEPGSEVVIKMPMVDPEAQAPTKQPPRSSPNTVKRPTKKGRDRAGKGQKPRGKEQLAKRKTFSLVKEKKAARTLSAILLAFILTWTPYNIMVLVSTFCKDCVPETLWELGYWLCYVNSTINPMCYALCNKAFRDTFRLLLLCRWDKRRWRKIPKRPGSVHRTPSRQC
The experiment in a line: cell-based. Also on record: species or system HEK293; Fluo-4 Direct calcium mobilization on FLIPR-Tetra. Conditions: Assay=Calcium, agonist mode, % of control agonist.

Test [2] has as its target T5, CHRM3 (Homo sapiens, UniProt P20309). The experiment in a line: cell-based. Also on record: species or system HEK293; Fluo-4 Direct calcium mobilization on FLIPR-Tetra. Conditions: Assay=Calcium, agonist mode, % of control agonist.
For test [3], the target named is T5, CHRM3. The experiment in a line: cell-based. On the set-up: species or system HEK293; Fluo-4 Direct calcium mobilization on FLIPR-Tetra. Conditions: Assay=Calcium; agonist mode.
The target in another test is HTR1D (Homo sapiens, UniProt P28221). Briefly: cell-based. Also on record: species or system HEK293; TRUPATH BRET2 G-protein dissociation; antagonist mode against agonist EC80. Particulars: agonist mode, % of control agonist.
Sequence of HTR1D (P28221 whole entry): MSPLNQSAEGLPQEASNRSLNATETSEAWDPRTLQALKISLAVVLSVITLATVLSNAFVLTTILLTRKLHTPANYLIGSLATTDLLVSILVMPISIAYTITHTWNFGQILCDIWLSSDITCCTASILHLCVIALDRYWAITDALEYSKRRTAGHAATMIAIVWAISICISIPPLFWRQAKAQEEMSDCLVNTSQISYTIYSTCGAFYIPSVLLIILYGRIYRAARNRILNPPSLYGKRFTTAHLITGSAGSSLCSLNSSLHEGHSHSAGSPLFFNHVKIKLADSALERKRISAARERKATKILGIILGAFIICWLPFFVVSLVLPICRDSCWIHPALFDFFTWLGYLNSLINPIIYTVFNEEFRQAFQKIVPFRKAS
The next test concerns the target HRH3 (Homo sapiens, UniProt Q9Y5N1). Briefly: cell-based. Also on record: species or system HEK293; TRUPATH BRET2 G-protein dissociation; antagonist mode against agonist EC80. Particulars: agonist mode, % of control agonist.
The target of another test is HRH4 (Homo sapiens, UniProt Q9H3N8). The experiment in a line: cell-based. Conditions: agonist mode, % of control agonist. On the set-up: species or system HEK293; TRUPATH BRET2 G-protein dissociation; antagonist mode against agonist EC80.
Sequence of HRH4 (Q9H3N8 whole entry): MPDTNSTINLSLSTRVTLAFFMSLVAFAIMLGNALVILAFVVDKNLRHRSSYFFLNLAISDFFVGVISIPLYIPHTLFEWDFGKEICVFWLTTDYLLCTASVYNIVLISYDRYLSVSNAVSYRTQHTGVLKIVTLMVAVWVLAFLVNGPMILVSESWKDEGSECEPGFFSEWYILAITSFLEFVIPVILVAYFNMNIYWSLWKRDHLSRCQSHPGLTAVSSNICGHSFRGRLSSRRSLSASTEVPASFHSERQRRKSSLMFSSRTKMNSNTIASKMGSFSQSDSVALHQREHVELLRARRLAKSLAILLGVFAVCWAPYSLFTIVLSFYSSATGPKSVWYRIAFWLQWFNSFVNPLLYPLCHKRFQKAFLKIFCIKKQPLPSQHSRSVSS
Test [4] addresses T3, CHRM5. The experiment in a line: cell-based. On the set-up: species or system HEK293; TRUPATH BRET2 G-protein dissociation; antagonist mode against agonist EC80. Particulars: agonist mode, % of control agonist.
The next test addresses T6, 5-HT2A (Homo sapiens, UniProt P28223).
T6 construct: gene HTR2A; full-length receptor; HEK293 cell membranes
The experiment in a line: competitive radioligand binding, HEK293 membranes. The source says: competitive radioligand binding, HEK293 membranes on 5-HT2A

[5] abbreviates: HEK293, read-out: N-Desmethyl Xanomeline.
[6] abbreviates: HEK293, read-out: N-Desmethyl Xanomeline, Assay=Gi1.
Where [7] appears, read: HEK293, read-out: N-Desmethyl Xanomeline, Assay=Gi2.
[8] abbreviates: HEK293, read-out: N-Desmethyl Xanomeline, Assay=Gi3.
[9] abbreviates: HEK293, read-out: N-Desmethyl Xanomeline, Assay=GoA.
Where [10] appears, read: HEK293, read-out: N-Desmethyl Xanomeline, Assay=GoB.
The mark [11] stands for this setting: HEK293, read-out: Xanomeline, Assay=Gi1.
Where [12] appears, read: HEK293, read-out: Xanomeline, Assay=Gi2.
The mark [13] stands for this setting: HEK293, read-out: Xanomeline, Assay=Gi3.
The mark [14] stands for this setting: HEK293, read-out: Xanomeline, Assay=GoA.
Where [15] appears, read: HEK293, read-out: Xanomeline, Assay=GoB.

SMILES strings stand for the structures. Where two headings read alike, the source gives them in different places.

T5 sequence (P20309 whole entry): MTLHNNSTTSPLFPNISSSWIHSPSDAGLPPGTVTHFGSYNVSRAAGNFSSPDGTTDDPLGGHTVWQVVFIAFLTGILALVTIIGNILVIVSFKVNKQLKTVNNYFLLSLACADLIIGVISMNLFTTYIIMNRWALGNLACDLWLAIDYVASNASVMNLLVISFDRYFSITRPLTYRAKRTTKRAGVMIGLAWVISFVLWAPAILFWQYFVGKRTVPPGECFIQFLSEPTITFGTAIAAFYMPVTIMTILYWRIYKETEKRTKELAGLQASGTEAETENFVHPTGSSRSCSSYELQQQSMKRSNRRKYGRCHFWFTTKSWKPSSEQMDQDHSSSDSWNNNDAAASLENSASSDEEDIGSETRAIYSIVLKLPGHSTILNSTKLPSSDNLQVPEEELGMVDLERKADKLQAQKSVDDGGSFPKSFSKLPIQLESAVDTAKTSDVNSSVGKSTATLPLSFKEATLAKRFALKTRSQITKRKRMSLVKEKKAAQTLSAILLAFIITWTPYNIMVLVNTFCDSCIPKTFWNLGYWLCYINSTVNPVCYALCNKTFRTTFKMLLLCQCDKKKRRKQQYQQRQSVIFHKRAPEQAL
Sequence of HRH3 (Q9Y5N1 whole entry): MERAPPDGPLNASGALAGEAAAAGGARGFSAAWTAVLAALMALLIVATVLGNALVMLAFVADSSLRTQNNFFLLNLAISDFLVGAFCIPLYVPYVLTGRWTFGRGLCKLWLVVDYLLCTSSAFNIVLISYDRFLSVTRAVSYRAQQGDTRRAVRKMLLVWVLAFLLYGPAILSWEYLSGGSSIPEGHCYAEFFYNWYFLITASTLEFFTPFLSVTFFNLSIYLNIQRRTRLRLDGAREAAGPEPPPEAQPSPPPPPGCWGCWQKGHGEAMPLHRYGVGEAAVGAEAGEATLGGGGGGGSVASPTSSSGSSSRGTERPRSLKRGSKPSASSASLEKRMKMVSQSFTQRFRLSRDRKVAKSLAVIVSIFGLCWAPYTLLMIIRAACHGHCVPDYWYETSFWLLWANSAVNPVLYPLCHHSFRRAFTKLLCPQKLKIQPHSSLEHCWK
T2 sequence (P25021 whole entry): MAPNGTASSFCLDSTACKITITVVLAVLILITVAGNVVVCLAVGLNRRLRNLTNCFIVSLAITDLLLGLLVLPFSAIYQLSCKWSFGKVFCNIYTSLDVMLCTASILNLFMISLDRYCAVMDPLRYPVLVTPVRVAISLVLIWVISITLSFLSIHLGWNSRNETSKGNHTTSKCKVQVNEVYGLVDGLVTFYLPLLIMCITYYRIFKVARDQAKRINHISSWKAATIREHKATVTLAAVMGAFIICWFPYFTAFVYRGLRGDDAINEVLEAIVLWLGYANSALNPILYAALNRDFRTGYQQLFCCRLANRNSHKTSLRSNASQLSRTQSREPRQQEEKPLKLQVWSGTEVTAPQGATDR
T6 sequence (P28223 whole entry): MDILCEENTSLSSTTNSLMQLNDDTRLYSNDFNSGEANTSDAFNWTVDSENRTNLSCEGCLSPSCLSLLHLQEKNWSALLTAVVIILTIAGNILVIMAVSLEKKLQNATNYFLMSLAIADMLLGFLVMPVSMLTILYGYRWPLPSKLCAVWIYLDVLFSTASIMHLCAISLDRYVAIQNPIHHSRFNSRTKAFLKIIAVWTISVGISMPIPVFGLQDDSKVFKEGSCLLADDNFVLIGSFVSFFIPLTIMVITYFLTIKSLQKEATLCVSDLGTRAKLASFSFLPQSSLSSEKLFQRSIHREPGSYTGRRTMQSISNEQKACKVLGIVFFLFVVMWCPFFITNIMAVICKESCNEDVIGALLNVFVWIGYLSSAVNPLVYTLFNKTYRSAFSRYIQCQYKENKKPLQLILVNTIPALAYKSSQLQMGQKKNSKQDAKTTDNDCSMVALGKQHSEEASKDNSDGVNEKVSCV
T1 sequence (P30939 whole entry): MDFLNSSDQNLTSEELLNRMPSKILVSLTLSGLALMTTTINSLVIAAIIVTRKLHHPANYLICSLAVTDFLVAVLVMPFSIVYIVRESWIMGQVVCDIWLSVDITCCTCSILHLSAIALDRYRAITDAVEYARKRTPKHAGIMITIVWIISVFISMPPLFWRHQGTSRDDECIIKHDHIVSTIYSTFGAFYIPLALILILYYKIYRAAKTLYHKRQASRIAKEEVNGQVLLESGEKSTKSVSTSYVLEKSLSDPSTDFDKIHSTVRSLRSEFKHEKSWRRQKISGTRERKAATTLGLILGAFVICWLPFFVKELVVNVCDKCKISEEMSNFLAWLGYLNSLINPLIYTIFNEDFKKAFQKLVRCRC

For the compound `CCCCCCOc1nsnc1C1=CCCNC1` [N-desmethylxanomeline], the Ki was 224 nM at 5-HT1F, 1020 nM on H2 and 537 nM on 5-HT2A. In addition, the Emax on CHRM5 [1] (setting [5]) worked out at 31.9%; at CHRM1 (setting [5]), 24.3%; on CHRM3 [2] (setting [5]), 39%; on HTR1D (setting [6]), 88.1%; at HTR1D (setting [7]) it was 66.3%; on HTR1D (setting [8]), 82.1%. Moreover, the Emax on HTR1D (setting [9]) came to 92.2%; at HTR1D (setting [10]) it was 73.8%; on HTR1D (HEK293, read-out: N-Desmethyl Xanomeline, Assay=Gz), 93.6%; on HRH3 (setting [6]), 75.4%; on HRH3 (setting [7]), 65.4%; at HRH3 (setting [8]), 84%. Moreover, the Emax at HRH3 (setting [9]) was determined as 79.3%; on HRH3 (setting [10]) it was 82.8%; at HRH4 (setting [6]), 79.3%; at HRH4 (setting [7]), 81%; on HRH4 (setting [8]), 86.8%; at HRH4 (setting [9]), 81.7%. The Emax on CHRM5 [4] (HEK293, read-out: N-Desmethyl Xanomeline, Assay=Gq) was found to be 80.4%. The EC50 on CHRM3 [3] turned out to be 64.1 nM.
With `CCCCCCOc1nsnc1C1=CCCN(C)C1` [Xanomeline], the values for the inhibition constant Ki on 5-HT1F, on H2 and on 5-HT2A were 759 nM, 347 nM and 251 nM, respectively. In addition, the Emax on CHRM5 [1] (HEK293, read-out: Xanomeline) turned out to be 35.4%; on CHRM1 (HEK293, read-out: Xanomeline) it was 25.6%; on CHRM3 [2] (HEK293, read-out: Xanomeline), 41%; at HTR1D (setting [11]), 69.7%; at HTR1D (setting [12]) it was 52.7%; on HTR1D (setting [13]), 66.7%. For the same compound, the Emax was 86.5% at HTR1D (setting [14]); 63.4% at HTR1D (setting [15]); 85.3% at HTR1D (HEK293, read-out: Xanomeline, Assay=Gz); 28.5% at HRH3 (setting [12]); 25.7% on HRH3 (setting [14]); 19% on HRH3 (setting [15]). The Emax on HRH4 (setting [11]) came to 49.5%; on HRH4 (setting [12]), 65.8%; on HRH4 (setting [13]), 40.2%; on HRH4 (setting [14]), 37.4%; at CHRM5 [4] (HEK293, read-out: Xanomeline, Assay=Gq) it was 82%. Moreover, at CHRM3 [3], the half-maximal effective concentration (EC50) came out at 34 nM.

For orientation: Ki means the equilibrium dissociation constant of an inhibitor or competing ligand from its target. A high value points to a looser hold on the target. What is called EC50 is the midpoint of the concentration-response curve.
